This assay has as its target T1, GPR139 (Homo sapiens, UniProt Q6DWJ6).
T1 sequence (Q6DWJ6 1-353): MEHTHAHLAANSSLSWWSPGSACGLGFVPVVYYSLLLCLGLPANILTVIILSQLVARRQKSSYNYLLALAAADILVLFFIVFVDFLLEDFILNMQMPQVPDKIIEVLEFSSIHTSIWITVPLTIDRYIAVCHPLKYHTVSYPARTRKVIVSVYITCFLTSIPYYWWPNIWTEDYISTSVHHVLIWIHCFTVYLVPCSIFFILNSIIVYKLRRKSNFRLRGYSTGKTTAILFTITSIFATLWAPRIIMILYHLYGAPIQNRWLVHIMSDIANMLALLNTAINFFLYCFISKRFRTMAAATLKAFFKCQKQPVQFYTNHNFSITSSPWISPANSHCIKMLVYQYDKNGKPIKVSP
The assay can be described thus: Ca2+ mobilization assay, HEK293A cells transiently expressing GPR139. It counts as cell-based. To be noted: for Emax: HEK293-A, normalized to JNJ-63533054 (JNJ(S)); for Emax / EC50: HEK293A transient; for EC50: Supplementary Table 6, read-out: pEC50 Ca2+ (converted); for Ca2+ signal (% of JNJ-63533054): replicate experiments. As for the experimental part: Primary screening and pharmacological characterization of compounds were performed using a CHO-K1 cell line that stably expresses human GPR139 (GPR139-CHOk1). The GPR139-CHOk1 cell line was kindly provided by H. Lundbeck A/S, Denmark[24]. GPR139-CHOk1 cells were grown in Ham’s F-12 Kaighn’s Modification Medium (ThermoFisher #21127030) supplemented with 10% dialyzed fetal bovine serum (US origin, ThermoFisher #26400044), 100 units/mL Penicillin-Streptomycin (ThermoFisher #15140122), and 1 mg/mL Geneticin (ThermoFisher #11811031). […] M1R-CHOk1 cells were purchased from The Missouri S&T cDNA Resource Center (#CEM100TN00). M1R-CHOk1 cells were grown in Ham’s F12 Medium (ThermoFisher #21765029) supplemented with 10% fetal bovine serum (Brazilian origin, ThermoFisher #10270106), 100 units/mL Penicillin-Streptomycin, and 0.25 mg/mL Geneticin. HEK293A cells transiently transfected with GPR139 were used for additional pharmacological assessment of signaling pathways activated by GPR139. HEK239A cells were generously provided by Dr. Asuka Inoue, Tohoku University, Japan. HEK293A cells were grown in Dulbecco’s Modified Eagle Medium (ThermoFisher #31966047) supplemented with 10% dialyzed fetal bovine serum and 100 units/mL Penicillin-Streptomycin. Cell lines were maintained at 37 °C in humidified incubator equilibrated with 5% CO2.
30,000 GPR139- or M1R-CHOk1 cells/well were seeded in black clear bottom tissue culture treated 96-well plates (Greiner #655090) and grown for 20–24 h. Cells were washed with HEPES buffer (Hank’s Balanced Salt Solution (HBBS) supplemented with 20 mM HEPES, 1 mM MgCl2, and 1 mM CaCl2; pH 7.4). Cells were loaded with 50 µL of 2 µM Fluo-4 AM dye (ThermoFisher #F14202) in HEPES buffer supplemented with 2.5 mM probenecid and 0.01% Pluronic F-68 (ThermoFisher #24040032) for 1 h at 37 °C. Cells were washed with HEPES buffer. 50 µL HEPES buffer supplemented with 2.5 mM probenecid was added, and the cells were incubated for 10 min at 37 °C before measurement. 50 µL test compounds diluted in HEPES buffer from DMSO stocks (final DMSO concentration of maximally 0.3%) were added automatically after baseline measurements. The intracellular calcium mobilization was measured on a FlexStation 3 Multimode Microplate Reader (Molecular Devices) at 37 °C with filters for excitation of 485 nm and emission of 525 nm.
HEK293A cells were reverse-transfected with human GPR139 for Ca^2+ mobilization experiments with transiently expressed GPR139. The construct has been generated and described previously by Nøhr et al.. DNA and Lipofectamine 2000 Transfection Reagent (ThermoFisher #11668019) were separately diluted in Opti-MEM I Reduced Serum Medium (ThermoFisher #31985070). 10 ng GPR139 DNA and 250 nL Lipofectamine were used for each well. The dilutions were incubated at room temperature for 5 min. Then, DNA and Lipofectamine dilutions were combined in 1:1 volumetric ratio and incubated at room temperature for 20 min to obtain the transfection solutions. 10 µL transfection solution and 20,000 cells in 100 µL growth medium were distributed in each well of black clear bottom tissue culture treated 96-well plates that were previously coated with poly-D-lysine (Sigma-Aldrich #P0899). Cells were grown for approximately 48 h. A calcium mobilization assay was performed as described.
Pharmacological data and statistical analyses were performed in GraphPad Prism v9–10 (Graphpad Software Inc., San Diego, CA), which are also specifically described in the figure and table legends. The functional assay responses were normalized to buffer (0%) and Lundbeck Cmp 1a or JNJ-63533054 (100%), for Ca^2+ and IP1 experiments in the GPR139-CHOk1 stable cell line or Ca^2+, G protein activation, and arrestin-3 recruitment experiments in the HEK293A cells transiently transfected with GPR139, respectively. Data are from at least three independent experiments, unless stated otherwise. […]

In general, Emax refers to the greatest response seen or fitted, relative to the assay's reference.

Where “and” joins values, the source holds several entries; their conditions need not be identical. Equal entries are not always repeated.

For the compound `Cc1cscc1-c1nc(CC(=O)N[C@H](C)c2ccccc2)no1` [1.1(R)], the maximal effect (Emax) came out at 139 ± 24% and the EC50 was 398 nM. For the same compound, under “log [Compound] M -5.0”, the “Ca2+ signal (% of JNJ-63533054)” value was 181 % of JNJ-63533054 and 86 % of JNJ-63533054 and 180 % of JNJ-63533054. Where the note is “log [Compound] M -5.5”, the “Ca2+ signal (% of JNJ-63533054)” value is 143 % of JNJ-63533054 and 96 % of JNJ-63533054 and 154 % of JNJ-63533054. The “Ca2+ signal (% of JNJ-63533054)” value (log [Compound] M -6.0) is 90 % of JNJ-63533054 and 77 % of JNJ-63533054 and 95 % of JNJ-63533054. Moreover, the “Ca2+ signal (% of JNJ-63533054)” value (log [Compound] M -6.5) was 70 % of JNJ-63533054 and 52 % of JNJ-63533054 and 66 % of JNJ-63533054. Besides, the “Ca2+ signal (% of JNJ-63533054)” value (log [Compound] M -7.0) is 15 % of JNJ-63533054 and 41 % of JNJ-63533054 and 28 % of JNJ-63533054. The “Ca2+ signal (% of JNJ-63533054)” value (log [Compound] M -7.5) is -6.33 % of JNJ-63533054 and 15 % of JNJ-63533054 and 7 % of JNJ-63533054. Besides, the “Ca2+ signal (% of JNJ-63533054)” value (log [Compound] M -8.0) was -9 % of JNJ-63533054 and 14 % of JNJ-63533054 and -7 % of JNJ-63533054. Further, under “log [Compound] M -8.5”, the “Ca2+ signal (% of JNJ-63533054)” value was 4 % of JNJ-63533054 and 2.33 % of JNJ-63533054 and -0.667 % of JNJ-63533054. In addition, for the setting “log [Compound] M -9.0”, the “Ca2+ signal (% of JNJ-63533054)” value is 8 % of JNJ-63533054 and 0.333 % of JNJ-63533054 and -15 % of JNJ-63533054.

Take `Cc1cscc1-c1nc(CC(=O)N[C@@H](C)c2ccccc2)no1` [1.1(S)]: the Emax was 146 ± 16% and the EC50 is 12.6 nM. Moreover, the “Ca2+ signal (% of JNJ-63533054)” value (log [Compound] M -5.0) is 135 % of JNJ-63533054 and 150 % of JNJ-63533054. Also, for the setting “log [Compound] M -5.5”, the “Ca2+ signal (% of JNJ-63533054)” value is 108 % of JNJ-63533054 and 167 % of JNJ-63533054. In addition, where the note is “log [Compound] M -6.0”, the “Ca2+ signal (% of JNJ-63533054)” value was 164 % of JNJ-63533054 and 119 % of JNJ-63533054 and 118 % of JNJ-63533054. Besides, under “log [Compound] M -6.5”, the “Ca2+ signal (% of JNJ-63533054)” value is 143 % of JNJ-63533054 and 116 % of JNJ-63533054 and 108 % of JNJ-63533054. In addition, the “Ca2+ signal (% of JNJ-63533054)” value (log [Compound] M -7.0) is 137 % of JNJ-63533054 and 106 % of JNJ-63533054 and 101 % of JNJ-63533054. For the same compound, the “Ca2+ signal (% of JNJ-63533054)” value (log [Compound] M -7.5) was 103 % of JNJ-63533054 and 92 % of JNJ-63533054 and 129 % of JNJ-63533054. Moreover, the “Ca2+ signal (% of JNJ-63533054)” value (log [Compound] M -8.0) was 70 % of JNJ-63533054 and 74 % of JNJ-63533054 and 57 % of JNJ-63533054. Moreover, where the note is “log [Compound] M -8.5”, the “Ca2+ signal (% of JNJ-63533054)” value was 28 % of JNJ-63533054 and 33 % of JNJ-63533054 and 37 % of JNJ-63533054. For the setting “log [Compound] M -9.0”, the “Ca2+ signal (% of JNJ-63533054)” value is 29 % of JNJ-63533054 and 19 % of JNJ-63533054 and 13 % of JNJ-63533054.

Turning to `C[C@@H](NC(=O)CNC(=O)c1cccc(Cl)c1)c1ccccc1` [JNJ(R), reference compound], the maximal effect (Emax) turned out to be 101 ± 18% and the EC50 was 1260 nM. Further, the “Ca2+ signal (% of JNJ-63533054)” value (log [Compound] M -5.0) is 95 % of JNJ-63533054 and 63 % of JNJ-63533054 and 134 % of JNJ-63533054. Besides, the “Ca2+ signal (% of JNJ-63533054)” value (log [Compound] M -5.5) is 58 % of JNJ-63533054 and 81 % of JNJ-63533054 (2×). Besides, where the note is “log [Compound] M -6.0”, the “Ca2+ signal (% of JNJ-63533054)” value was 27 % of JNJ-63533054 and 52 % of JNJ-63533054 and 38 % of JNJ-63533054. Besides, the “Ca2+ signal (% of JNJ-63533054)” value (log [Compound] M -6.5) is 14 % of JNJ-63533054 and 29 % of JNJ-63533054 and 4.33 % of JNJ-63533054. Also, the “Ca2+ signal (% of JNJ-63533054)” value (log [Compound] M -7.0) is 7 % of JNJ-63533054 and 9 % of JNJ-63533054 and -10 % of JNJ-63533054. The “Ca2+ signal (% of JNJ-63533054)” value (log [Compound] M -7.5) was 5 % of JNJ-63533054 and 9 % of JNJ-63533054 and -13 % of JNJ-63533054. Moreover, the “Ca2+ signal (% of JNJ-63533054)” value (log [Compound] M -8.0) is -3.33 % of JNJ-63533054 and 8 % of JNJ-63533054 and -14 % of JNJ-63533054. Besides, for the setting “log [Compound] M -8.5”, the “Ca2+ signal (% of JNJ-63533054)” value was -0.667 % of JNJ-63533054 and 11 % of JNJ-63533054 and -10 % of JNJ-63533054. In addition, the “Ca2+ signal (% of JNJ-63533054)” value (log [Compound] M -9.0) was -2.67 % of JNJ-63533054 and 15 % of JNJ-63533054 and -6 % of JNJ-63533054.

As to `CC(NC(=O)CNC(=O)c1cccc(Cl)c1)c1ccccc1` (centres unmarked) [JNJ-63533054, reference compound], the Emax worked out at 133 ± 14% and the EC50 is 15.8 nM. The “Ca2+ signal (% of JNJ-63533054)” value (log [Compound] M -5.0, listed as JNJ (S)) was 174 % of JNJ-63533054 and 107 % of JNJ-63533054 and 106 % of JNJ-63533054. In addition, the “Ca2+ signal (% of JNJ-63533054)” value (log [Compound] M -5.5, listed as JNJ (S)) is 140 % of JNJ-63533054 and 98 % of JNJ-63533054 and 168 % of JNJ-63533054. Moreover, the “Ca2+ signal (% of JNJ-63533054)” value (log [Compound] M -6.0, listed as JNJ (S)) was 143 % of JNJ-63533054 and 109 % of JNJ-63533054 and 138 % of JNJ-63533054. Moreover, the “Ca2+ signal (% of JNJ-63533054)” value (log [Compound] M -6.5, listed as JNJ (S)) is 110 % of JNJ-63533054 and 107 % of JNJ-63533054 and 98 % of JNJ-63533054. Besides, under “log [Compound] M -7.0, listed as JNJ (S)”, the “Ca2+ signal (% of JNJ-63533054)” value was 101 % of JNJ-63533054 and 88 % of JNJ-63533054 and 92 % of JNJ-63533054. In addition, under “log [Compound] M -7.5, listed as JNJ (S)”, the “Ca2+ signal (% of JNJ-63533054)” value is 90 % of JNJ-63533054 and 115 % of JNJ-63533054 and 68 % of JNJ-63533054. The “Ca2+ signal (% of JNJ-63533054)” value (log [Compound] M -8.0, listed as JNJ (S)) was 51 % of JNJ-63533054 and 82 % of JNJ-63533054 and 41 % of JNJ-63533054. Also, the “Ca2+ signal (% of JNJ-63533054)” value (log [Compound] M -8.5, listed as JNJ (S)) is 37 % of JNJ-63533054 and 28 % of JNJ-63533054 and 33 % of JNJ-63533054. The “Ca2+ signal (% of JNJ-63533054)” value (log [Compound] M -9.0, listed as JNJ (S)) was 13 % of JNJ-63533054 and 3.67 % of JNJ-63533054 and 12 % of JNJ-63533054.
